In patent US11247982B2, “NMDA receptor modulators, compositions comprising same and use of these compounds in the treatment of diseases involving the central nervous system” (ADPUERIVITAM, priority 2017, dated 2022):

Test system: NMDA receptors
Experiment: Whole-cell patch-clamp of NMDA currents in cultured rat embryonic hippocampal neurons
Type: cell-based
Details: for A. NMDA current: Summary: 10 μM test compound; for C. Channel closing kinetics: T run-down (ms) / C. Channel closing kinetics: Tau (s) / D. Desensitization: Slope (pA/s) / C. Channel closing kinetics: Max slope (pA/s) / B. Channel opening kinetics: Min slope (pA/s) / C. Channel closing kinetics: Run down slope (pA/s) / B. Channel opening kinetics: Run-up slope (pA/s) / B. Channel opening kinetics: T run-up (ms) / B. Channel opening kinetics: Time to peak (ms): 10 μM test compound vs NMDA alone; for C. Channel closing kinetics: T run-down (ms): closing time between 90% and 10% of max current; for C. Channel closing kinetics: T run-down (ms) / C. Channel closing kinetics: Tau (s) / D. Desensitization: Slope (pA/s) / C. Channel closing kinetics: Max slope (pA/s) / B. Channel opening kinetics: Min slope (pA/s) / C. Channel closing kinetics: Run down slope (pA/s) / B. Channel opening kinetics: Run-up slope (pA/s) / B. Channel opening kinetics: T run-up (ms) / B. Channel opening kinetics: Time to peak (ms) / A. NMDA current: Width 50 (ms) / A. NMDA current: Peak area (pA · s): (n) = cells; for C. Channel closing kinetics: Tau (s): closing time of 50% of the channels (half-life); for D. Desensitization: Slope (pA/s): desensitization speed during the application of NMDA; for C. Channel closing kinetics: Max slope (pA/s): greatest closing speed; for B. Channel opening kinetics: Min slope (pA/s): greatest opening speed; for C. Channel closing kinetics: Run down slope (pA/s): mean closing speed during T run-down; for B. Channel opening kinetics: Run-up slope (pA/s): mean opening speed during T run-up; for B. Channel opening kinetics: T run-up (ms): opening time between 10% and 90% of max current; for B. Channel opening kinetics: Time to peak (ms): time to reach the maximum current; for A. NMDA current: Width 50 (ms) / A. NMDA current: Peak area (pA · s) / A. NMDA current: Height (pA): 10 μM test compound with 100 μM NMDA + 5 μM L-glycine vs NMDA alone; for A. NMDA current: Width 50 (ms): duration of current above 50% of Height; for A. NMDA current: Peak area (pA · s): total current integrated over time; for A. NMDA current: Height (pA): −60 mV, maximum current, (n) = number of cells; for A. NMDA current: Washable / B. Channel opening kinetics: Washable / C. Channel closing kinetics: Washable / D. Desensitization: Washable: persistence of effect, NMDA wash vs NMDA + test compound
Procedure: Female Wistar rats in gestation with 17-day-old embryos (E17) were obtained from Janvier Labs. On the day of receipt of the animals, the rat is sacrificed and the embryos are dissected under sterile conditions to remove their brain, which is then micro-dissected in GBSS (Gey's balanced salt solution) medium to obtain the hippocampus from the two hemispheres, while discarding the meninges. The tissues harvested from at least five embryos are placed in 2 ml of DMEM medium (registered trademark) (Dulbecco's modified Eagle's medium—from Life Technologies) with 2% of fetal calf serum, 2 mM of glutamine, 0.1 mg/mL of penicillin-streptomycin antibiotic mixture (Life Technologies) and subjected to mechanical dissociation of the cells by passing through round-ended glass pipettes with an inside diameter decreasing from 0.5 to 0.2 mm. The cells are counted and 100 μl of suspension containing 25×10^3 cells are placed on a glass slide coated with polylysine (poly-D-lysine hydrobromide from 75 to 150 kDa, from Sigma) of Ø 12 mm, in 12-well culture plates and incubated for 2 hours at 37° C. under an atmosphere containing 5% of CO2 to allow cell adhesion. A volume of 2 mL of culture medium is added gently: Neurobasal (registered trademark) with 1/50 (v:v) serum-free supplement B-27® (Life Technologies), 2 mM of glutamine, 0.1 mg/ml of penicillin-streptomycin antibiotic mixture (from Life Technologies), and incubation is again performed under the same conditions. Half of the medium is replaced twice a week for maintenance. The neuronal cells will be able to differentiate over a period of 12 to 30 days. The cultures are monitored by phase-contrast microscopy: the extension of the neurites and of the synaptic connections is observed for the neurons, which represent the majority of the cells, while a few astrocytes are also present.
The electrophysiology post consists of an Olympus IMT-2 model inverted phase-contrast microscope placed on a TMC antivibration table in a Faraday cage. The installation also comprises an SF-77B model Warner multichannel perfusion system, a Burleigh PCS-5000 model 3D-micromanipulator system holding the microelectrode probe, a Warner PC-505 model patch-clamp amplifier and a PowerLab 8/35 model 8-channel analog-digital interface from ADInstruments. The glass microelectrode is manufactured with thin-walled borosilicate capillary tubes (1.5 OD×1.17 ID×100 L mm, from Harvard Apparatus) and prepared with the Narishige PC10 model vertical electrode puller to obtain an electrical resistance of about 5 MOhm. The electrode of the pipette is filled with the intracellular medium composed of (in mM): 100 CsF, 40 CsCl, 1.2 CaCl2, 20 HEPES, 10 EGTA, pH=7.4 (adjusted with CsOH).
The culture on its slide is placed in a 60 mm Petri dish with 2 ml of extracellular medium composed of (in mM): 140 NaCl, 5 KCl, 1.2 CaCl2, 1.5 MgCl2, 12 HEPES, 12 Na-HEPES, 33 glucose, pH=7.4.
The neuron selected is patched in the whole cell configuration. The maintenance potential is set at −60 mV.
The assembled glass microtubes of square cross section of the perfusion system each provide a stable stream of different composition. The “TTX” default medium corresponds to the extracellular medium to which is added 1 μM tetrodotoxin. The “NMDA” application medium is “TTX” supplemented with 100 μM of NMDA (N-methyl-D-aspartate) as agonist, and 5 μM of L-glycine as co-agonist. The “NMDA+ test compound” medium corresponds to the “NMDA” supplemented with 10 μM of the test compound. The “NMDA wash” is identical to the “NMDA” medium.
As a general rule, three applications of each test compound are performed on the patched cell, for 2 seconds at intervals of 3 minutes (to allow inversion of desensitization). The sequence of the applications is: 1) “NMDA”, 2) “NMDA+ test compound”, 3) “NMDA wash”. The “TTX” medium is applied by default, before and after each application of test compound. […]

Structure (SMILES)	antagonistic effect on the maximum current amplitude (concentration of less than 1 μM)	A. NMDA current: Summary	C. Channel closing kinetics: T run-down (ms)	C. Channel closing kinetics: Tau (s)	D. Desensitization: Slope (pA/s)	C. Channel closing kinetics: Max slope (pA/s)	B. Channel opening kinetics: Min slope (pA/s)	C. Channel closing kinetics: Run down slope (pA/s)	B. Channel opening kinetics: Run-up slope (pA/s)	B. Channel opening kinetics: T run-up (ms)	B. Channel opening kinetics: Time to peak (ms)	A. NMDA current: Width 50 (ms)	A. NMDA current: Peak area (pA · s)	A. NMDA current: Height (pA)	A. NMDA current: Washable	B. Channel opening kinetics: Washable	C. Channel closing kinetics: Washable	D. Desensitization: Washable
Cc1ccc2[nH]c(=O)c(C3=NN(C(=O)CCC(=O)O)C(c4ccc(Br)cc4)C3)c(-c3ccccc3)c2c1 (stereo not shown) [DQP1105, reference compound]	maintained at the same level																	
O=C(C[C@]1(O)C(=O)N(CCc2c[nH]c3ccccc23)c2ccccc21)c1cccc(Cl)c1 [Molecule 1]		Antagonist (4+)	12 ± 6% (7)	29 ± 13% (6)	−59 ± 8% (7)	−27 ± 10% (7)	−35 ± 12% (7)	−48 ± 8% (7)	−45 ± 7% (7)	3 ± 3% (7)	1 ± 4% (7)	0 ± 9% (7)	−37 ± 12% (7)	−43 ± 8% (7)	No	No	No	No
O=C(C[C@]1(O)C(=O)N(CCc2c[nH]c3ccccc23)c2ccccc21)c1ccccc1Cl [Molecule 2]		Antagonist (6+)	−15 ± 5% (7)	44 ± 28% (7)	−70 ± 17% (7)	−28 ± 8% (7)	−25 ± 9% (7)	−63 ± 13% (7)	−61 ± 10% (7)	−16 ± 13% (7)	−7 ± 4% (7)	−49 ± 14% (7)	−65 ± 13% (7)	−66 ± 10% (7)	Yes	(Yes/No)	(Yes/No)	(Yes)
O=C(C[C@]1(O)C(=O)N(CCc2c[nH]c3ccccc23)c2ccccc21)c1ccccc1F [Molecule 3]		Antagonist (2+)	2 ± 4% (13)	17 ± 5 (13) %	−43 ± 8% (13)	−22 ± 4% (13)	−22 ± 4 (13) %	−30 ± 8% (13)	−23 ± 5% (13)	−8 ± 6% (13)	−5 ± 3% (13)	−10 ± 7% (13)	−16 ± 8% (13)	−24 ± 7% (13)	(No/Yes)	(Yes/No)	No	No
